In patent US20230031406A1, “COMPOUNDS AND COMPOSITIONS FOR TREATING CONDITIONS ASSOCIATED WITH NLRP ACTIVITY” (Novartis AG, priority 2018, published 2023):
pIC50: −log10 of the molar value. Read-outs that look alike come from different tables or passages of the source. One block for each molecule: values may come before it.

System: PMA-differentiated THP-1 cells
Assay: IL-1β production in PMA-differentiated THP-1 cells stimulated with gramicidin (hTHP-1 assay containing 2% fetal bovine serum; Procedures 1 and 2)
Format: cell-based, human
Conditions: 2% fetal bovine serum
How it was run: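 Compound titrations in 0.37% final DMSO were added to THP-1 cells that had been plated after 16-18 h PMA treatment, 50,000 per well in 2% FBS. One hour later the cells received gramicidin (5 μM, 2 h) and were centrifuged. HTRF detected IL-1β in the collected supernatants.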

[1] = Homo sapiens, THP-1, Table B4, class symbols, read-out: hTHP-1 IC50
[2] = Table B2, class symbols, read-out: hTHP-1 IC50
[3] = Homo sapiens, THP-1, Table B2, class symbols, read-out: hTHP-1 IC50
[4] = Homo sapiens, THP-1, Table B3, hTHP-1 assay, numeric values, read-out: IC50
[5] = Homo sapiens, THP-1, Table B2, numeric bounds, read-out: hTHP-1 IC50
[6] = Homo sapiens, THP-1, Table B1, numeric bounds, read-out: Average IC50 of compounds in hTHP-1 assay: hTHP-1 IC50
[7] = Table B3, hTHP-1 assay, class symbols, read-out: IC50

pIC50 [2]: 4.52 to 5.30
Structure (SMILES): CCn1cc(Cl)c(S(N)(=O)=NC(=O)Nc2c(C)c(C(F)(F)F)nc3c2CCC3)n1 (single isomer, unassigned) [Compound 729a, (S) or (R)-4-Chloro-1-ethyl-N′-((3-methyl-2-(trifluoromethyl)-6,7-dihydro-5H-cyclopenta[b]pyridin-4-yl)carbamoyl)-1H-pyrazole-3-sulfonimidamide]

pIC50 [4]: < 4.52
Structure (SMILES): Cc1c(C(F)(F)F)nc2c(c1NC(=O)N=S(N)(=O)c1ccn(C)n1)CCC2 (single isomer, unassigned) [Example 694, (S) or (R)-1-Methyl-N′-((3-methyl-2-(trifluoromethyl)-6,7-dihydro-5H-cyclopenta[b]pyridin-4-yl)carbamoyl)-1H-pyrazole-3-sulfonimidamide]

pIC50 [2]: 5.30 to 6.00
Structure (SMILES): CCc1c(C2CC2)nc2c(c1NC(=O)N=S(N)(=O)c1cnc(C(C)(C)O)s1)CCC2 (single isomer, unassigned) [Compound 675a, (R) or (S)-N′-((2-cyclopropyl-3-ethyl-6,7-dihydro-5H-cyclopenta[b]pyridin-4-yl)carbamoyl)-2-(2-hydroxypropan-2-yl)thiazole-5-sulfonimidamide]

pIC50 [2]: 6.00 to 6.70
Structure (SMILES): CCc1nc2c(c(NC(=O)N=S(N)(=O)c3cc(C(C)(C)O)cs3)c1C1CC1)CCC2 (single isomer, unassigned) [Compound 654b]

pIC50 [7]: 5.30 to 6.00
Structure (SMILES): CCn1cc(F)c(S(N)(=O)=NC(=O)Nc2c3c(nc4c2CCC4(C)C)CCC3)n1 (single isomer, unassigned) [Example 716, (S) or (R)-N′-((3,3-dimethyl-1,2,3,5,6,7-hexahydrodicyclopenta[b,e]pyridin-8-yl)carbamoyl)-1-ethyl-4-fluoro-1H-pyrazole-3-sulfonimidamide]

pIC50 [3]: 6.00 to 6.70
Structure (SMILES): CCn1ccc([S@](N)(=O)=NC(=O)Nc2c3c(nc(C4CC4)c2C2CC2)CCC3)n1 [Compound 726b]

pIC50 [3]: 5.30 to 6.00
Structure (SMILES): Cc1c(C2CCC2)nc2c(c1NC(=O)N=S(N)(=O)c1cc(C(C)(C)O)cs1)CCC2 (single isomer, unassigned) [Compound 658b, (R) or (S)-N′-((2-cyclobutyl-3-methyl-6,7-dihydro-5H-cyclopenta[b]pyridin-4-yl)carbamoyl)-4-(2-hydroxypropan-2-yl)thiophene-2-sulfonimidamide]

pIC50 [7]: 4.52 to 5.30
Structure (SMILES): CCn1cc(F)c(S(N)(=O)=NC(=O)Nc2c3c(nc4c2CC[C@@H]4C)CCC3)n1 (single isomer, unassigned) [Example 712, (S) or (R)-1-ethyl-4-fluoro-N′-(((S)-3-methyl-1,2,3,5,6,7-hexahydrodicyclopenta[b,e]pyridin-8-yl)carbamoyl)-1H-pyrazole-3-sulfonimidamide]

Continued, molecule first:

Structure (SMILES): NS(=O)(=NC(=O)Nc1c2c(nc(C(F)(F)F)c1-c1ccccc1)CCC2)c1nn(C(F)F)cc1F (centres unmarked) [Example 740, 1-(Difluoromethyl)-4-fluoro-N′-((3-phenyl-2-(trifluoromethyl)-6,7-dihydro-5H-cyclopenta[b]pyridin-4-yl)carbamoyl)-1H-pyrazole-3-sulfonimidamide]
pIC50 [1]: 6.70 to 7.40

Structure (SMILES): CCn1cc(F)c(S(N)(=O)=NC(=O)Nc2c3c(nc(C(F)(F)F)c2-c2ccccc2F)CCC3)n1 (centres unmarked) [Example 746, 1-Ethyl-4-fluoro-N′-((3-(2-fluorophenyl)-2-(trifluoromethyl)-6,7-dihydro-5H-cyclopenta[b]pyridin-4-yl)carbamoyl)-1H-pyrazole-3-sulfonimidamide]
pIC50 [1]: 7.40 to 8.10

Structure (SMILES): Cc1c(C(F)(F)F)nc2c(c1NC(=O)N=S(N)(=O)c1cnn(C(F)F)c1)CCC2 (single isomer, unassigned) [Compound 617a, (R) or (S)-1-(Difluoromethyl)-N′-((3-methyl-2-(trifluoromethyl)-6,7-dihydro-5H-cyclopenta[b]pyridin-4-yl)carbamoyl)-1H-pyrazole-4-sulfonimidamide]
pIC50 [3]: 4.52 to 5.30

Structure (SMILES): CC(C)n1nc(S(N)(=O)=NC(=O)Nc2c3c(nc4c2CCC42CC2)CCC3)cc1CO (single isomer, unassigned) [Example 642, (S) or (R)-5-(hydroxymethyl)-1-isopropyl-N′-((1′,5′,6′,7′-tetrahydro-2′H-spiro[cyclopropane-1,3′-dicyclopenta[b,e]pyridin]-8′-yl)carbamoyl)-1H-pyrazole-3-sulfonimidamide]
pIC50 [4]: < 4.52

Structure (SMILES): Cc1c(C(F)(F)F)nc2c(c1NC(=O)N=S(N)(=O)c1nn(C(F)F)cc1F)CCC2 (centres unmarked) [Compound 717]
pIC50 [3]: 6.00 to 6.70

Structure (SMILES): CC(C)c1c(-c2ccccc2)nc2c(c1NC(=O)N=S(N)(=O)c1cnc(C(C)(C)O)s1)CCC2 (centres unmarked) [Compound 145, 2-(2-hydroxypropan-2-yl)-N′-((3-isopropyl-2-phenyl-6,7-dihydro-5H-cyclopenta[b]pyridin-4-yl)carbamoyl)thiazole-5-sulfonimidamide]
pIC50 (Homo sapiens, THP-1, Table B1, class symbols, read-out: Average IC50 of compounds in hTHP-1 assay: hTHP-1 IC50): 4.52 to 5.30

Structure (SMILES): CC(C)(O)c1cc(S(N)(=O)=NC(=O)Nc2c3c(nc4c2CCC4(C)C)CCC3)nn1-c1ccccc1 (centres unmarked) [Compound 663, N′-((3,3-dimethyl-1,2,3,5,6,7-hexahydrodicyclopenta[b,e]pyridin-8-yl)carbamoyl)-5-(2-hydroxypropan-2-yl)-1-phenyl-1H-pyrazole-3-sulfonimidamide]
pIC50 [3]: 5.30 to 6.00

Structure (SMILES): Cc1c(C(F)(F)F)nc2c(c1NC(=O)N=S(N)(=O)c1cnc(C(C)(C)O)s1)CCC2 (single isomer, unassigned) [Compound 661b, (S) or (R)-2-(2-Hydroxypropan-2-yl)-N′-((3-methyl-2-(trifluoromethyl)-6,7-dihydro-5H-cyclopenta[b]pyridin-4-yl)carbamoyl)thiazole-5-sulfonimidamide]
pIC50 [2]: 4.52 to 5.30

Structure (SMILES): CC1(C)CCc2c1nc1c(c2NC(=O)N=S(N)(=O)c2ccn(-c3ccccc3)n2)CCC1 (centres unmarked) [Compound 659, N′-((3,3-dimethyl-1,2,3,5,6,7-hexahydrodicyclopenta[b,e]pyridin-8-yl)carbamoyl)-1-phenyl-1H-pyrazole-3-sulfonimidamide]
pIC50 [3]: 5.30 to 6.00

Structure (SMILES): Cc1cc(C(C)(C)O)sc1S(N)(=O)=NC(=O)Nc1c2c(nc3c1CCC3)CCC2 (single isomer, unassigned) [Compound 695a, (S) or (R)-N′-((1,2,3,5,6,7-hexahydrodicyclopenta [b,e]pyridin-8-yl)carbamoyl)-5-(2-hydroxypropan-2-yl)-3-methylthiophene-2-sulfonimidamide]
pIC50 [5]: < 4.52

Structure (SMILES): CC1CCc2c1nc1c(c2NC(=O)N=S(N)(=O)c2sc(C(C)(C)O)nc2CO)CCC1 (single isomer, unassigned) [Compound 168ab, (S,R) or (S,S)-4-(hydroxymethyl)-2-(2-hydroxypropan-2-yl)-N′-((3-methyl-1,2,3,5,6,7-hexahydrodicyclo-penta[b,e]pyridin-8-yl)carbamoyl)thiazole-5-sulfonimidamide]
pIC50 [6]: < 4.52

Structure (SMILES): Cc1c(C2(C)CC2)nc2c(c1NC(=O)N=S(N)(=O)c1cc(C(C)(C)O)cs1)CCC2 (centres unmarked) [Compound 669, 4-(2-Hydroxypropan-2-yl)-N′-((3-methyl-2-(1-methylcyclopropyl)-6,7-dihydro-5H-cyclopenta[b]pyridin-4-yl)carbamoyl)thiophene-2-sulfonimidamide]
pIC50 [3]: 4.52 to 5.30

Structure (SMILES): NS(=O)(=NC(=O)Nc1c2c(nc3c1CCC31CC1)CCC2)c1cnn(C(F)F)c1 (single isomer, unassigned) [Compound 638b, (S) or (R)-1-(Difluoromethyl)-N′-((1′,5′,6′,7′-tetrahydro-2′H-spiro[cyclopropane-1,3′-dicyclopenta[b,e]pyridin]-8′-yl)carbamoyl)-1H-pyrazole-4-sulfonimidamide]
pIC50 [5]: < 4.52

Structure (SMILES): CC(C)n1nc(S(N)(=O)=NC(=O)Nc2c3c(nc4c2CCC4(C)C)CCC3)cc1C(C)(C)O (single isomer, unassigned) [Compound 615b, (R) or (S)-N′-((3,3-dimethyl-1,2,3,5,6,7-hexahydrodicyclopenta [b,e]pyridin-8-yl)carbamoyl)-5-(2-hydroxypropan-2-yl)-1-isopropyl-1H-pyrazole-3-sulfonimidamide]
pIC50 [3]: 5.30 to 6.00

Structure (SMILES): Cc1c(C(F)(F)F)nc2c(c1NC(=O)N=S(N)(=O)c1cnc(C(C)(O)CO)s1)CCC2 (single isomer, unassigned) [Compound 605a, (S, RS) or (R, RS) 2-(-1,2-dihydroxypropan-2-yl)-N′-((3-methyl-2-(trifluoromethyl)-6,7-dihydro-5H-cyclopenta[b]pyridin-4-yl)carbamoyl)thiazole-5-sulfonimidamide]
pIC50 [2]: 6.00 to 6.70

Structure (SMILES): Cc1c(C(F)(F)F)nc2c(c1NC(=O)N=S(N)(=O)c1cnc(C(C)(C)O)s1)CCC2C (centres unmarked) [Compound 608, N′-((3,7-dimethyl-2-(trifluoromethyl)-6,7-dihydro-5H-cyclopenta[b]pyridin-4-yl)carbamoyl)-2-(2-hydroxypropan-2-yl)thiazole-5-sulfonimidamide]
pIC50 [2]: 5.30 to 6.00

Structure (SMILES): CC(C)(O)c1ccc(S(N)(=O)=NC(=O)Nc2c3c(nc4c2CCC4)CCC3)cn1 (single isomer, unassigned) [Compound 156a, (S) or (R)-N′-((1,2,3,5,6,7-hexahydrodicyclo-penta[b,e]pyridin-8-yl)carbamoyl)-6-(2-hydroxypropan-2-yl)pyridine-3-sulfonimidamide]
pIC50 [6]: < 4.52

Structure (SMILES): Cc1c(C(F)(F)F)nc2c(c1NC(=O)N=S(N)(=O)c1cc(CO)n(C(C)C)n1)CCC2 (single isomer, unassigned) [Example 719, (S) or (R)-5-(hydroxymethyl)-1-isopropyl-N′-((3-methyl-2-(trifluoromethyl)-6,7-dihydro-5H-cyclopenta[b]pyridin-4-yl)carbamoyl)-1H-pyrazole-3-sulfonimidamide]
pIC50 (Homo sapiens, THP-1, Table B3, hTHP-1 assay, class symbols, read-out: IC50): 5.30 to 6.00
